Legend:
human Nav1.8 = human Nav1.8 (Homo sapiens (Human), UniProt Q9Y5Y9); test: FRET-based membrane potential assay, recombinant human sodium channel Nav1.8; format: cell-based; conditions: HEK293 cells stably expressing recombinant human Nav1.8; depolarization with veratridine (EC80) + scorpion venom
Experimental: FRET-Based Membrane Potential Assays.
Recombinant, Human Sodium Channel, Nav1.8.
Two days prior to the experiment, frozen HEK293 cells stably expressing recombinant human Nav1.8 (Essen, Ann Arbor, Mich.) were quickly thawed and plated at 22,500 cells/well in growth medium [MEM (Invitrogen #11095) with 10% FBS (Invitrogen #10082), 1 mM sodium pyruvate (Invitrogen, #C11360), 10 units/mL penicillin/10 U/mL streptomycin/29.2 μg/mL glutamine ((PSG 1%, Invitrogen #10378), 400 μg/mL zeocin (Invitrogen #R250) in black-walled, clear-bottom 384-well poly-D-lysine-coated assay plates (Greiner Bio-One, Frickenhausen, Germany) and incubated in a humidified 5% CO2 incubator at 37° C. On the day of the assay, medium was removed by aspiration, and cells were washed with assay buffer [HBSS (Invitrogen, Carlsbad, Calif.) containing 20 mM HEPES (Invitrogen, Carlsbad, Calif.)]. After washing, 30 μL assay buffer containing the fluorescent voltage-sensor probe CC2-DMPE (Invitrogen, Carlsbad, Calif.) at 20 μM and 0.01% pluronic F-127 (Invitrogen, Carlsbad, Calif.) was added to the cells. Cells were incubated for 40 minutes at room temperature in the dark. Following the incubation, the cells were washed and 30 μL assay buffer containing 2.5 μM DiSBAC2(3) substrate (Invitrogen, Carlsbad, Calif.) and 0.5 mM VABSC-1 (Invitrogen, Carlsbad, Calif.) was added to the cells. The cells were incubated for 60 minutes at room temperature in the dark. Fluorescence readings were made using a FLIPR®^TETRA (Molecular Devices, Sunnyvale Calif.) equipped with voltage-sensor probe optics. The depolarizing agent, veratridine (Sigma-Aldrich, St. Louis, Mo.), was made up at 3× concentrations in assay buffer containing 1 mg/mL scorpion venom (SVqq, from Leiurus quinquestriatus; Sigma-Aldrich, St. Louis, Mo.). The assay agonist/opener concentration was determined each day using a 6-point veratridine concentration curve in duplicate, tested with three concentrations of tetracaine (0.1, 0.06, 0.01 μM all in 0.03% dimethyl sulfoxide) and 0.03% dimethyl sulfoxide control in assay buffer. […] Test compounds in the daughter plate were diluted to (˜3×) solutions in assay buffer immediately before assaying. Using the FLIPR®^TETRA, 20 μL of the (3×) compound solutions were first added to the cells, then 20 μL of depolarizing solution (3×EC80 veratridine+SVqq) were added 3 minutes later to activate the channel. Changes in fluorescence were measured at wavelengths of 440-480 nm and 565-625 nm over the course of the experimental run. Membrane depolarization was expressed as a ratio of the maximum F440-480 nm/F565-625 nm reading above average baseline F440-480 nm/F565-625 nm reading. IC50 values were calculated from curve fits of the ratio data using a four-parameter logistic Hill equation (Accelrys Assay Explorer 3.3 Client, Accelrys, San Diego, Calif.) with percent inhibition plotted against compound concentration.

human Nav1.7 = human Nav1.7 (Homo sapiens (Human), UniProt Q15858); test: FRET-based membrane potential assay, recombinant human sodium channel Nav1.7; format: cell-based; conditions: HEK293 cells stably expressing recombinant human Nav1.7; depolarization with veratridine (EC80) + scorpion venom
Outline: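 IC50 derived by four-parameter Hill fit of percent inhibition of depolarization, measured as peak F440-480/F565-625 ratio over baseline. Stable human Nav1.7 HEK293 cells, dye-loaded with CC2-DMPE and DiSBAC2(3)/VABSC-1 at room temperature, received compound 3 min ahead of veratridine (EC80) plus scorpion venom.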

Sequence of human Nav1.8 (Q9Y5Y9 whole entry): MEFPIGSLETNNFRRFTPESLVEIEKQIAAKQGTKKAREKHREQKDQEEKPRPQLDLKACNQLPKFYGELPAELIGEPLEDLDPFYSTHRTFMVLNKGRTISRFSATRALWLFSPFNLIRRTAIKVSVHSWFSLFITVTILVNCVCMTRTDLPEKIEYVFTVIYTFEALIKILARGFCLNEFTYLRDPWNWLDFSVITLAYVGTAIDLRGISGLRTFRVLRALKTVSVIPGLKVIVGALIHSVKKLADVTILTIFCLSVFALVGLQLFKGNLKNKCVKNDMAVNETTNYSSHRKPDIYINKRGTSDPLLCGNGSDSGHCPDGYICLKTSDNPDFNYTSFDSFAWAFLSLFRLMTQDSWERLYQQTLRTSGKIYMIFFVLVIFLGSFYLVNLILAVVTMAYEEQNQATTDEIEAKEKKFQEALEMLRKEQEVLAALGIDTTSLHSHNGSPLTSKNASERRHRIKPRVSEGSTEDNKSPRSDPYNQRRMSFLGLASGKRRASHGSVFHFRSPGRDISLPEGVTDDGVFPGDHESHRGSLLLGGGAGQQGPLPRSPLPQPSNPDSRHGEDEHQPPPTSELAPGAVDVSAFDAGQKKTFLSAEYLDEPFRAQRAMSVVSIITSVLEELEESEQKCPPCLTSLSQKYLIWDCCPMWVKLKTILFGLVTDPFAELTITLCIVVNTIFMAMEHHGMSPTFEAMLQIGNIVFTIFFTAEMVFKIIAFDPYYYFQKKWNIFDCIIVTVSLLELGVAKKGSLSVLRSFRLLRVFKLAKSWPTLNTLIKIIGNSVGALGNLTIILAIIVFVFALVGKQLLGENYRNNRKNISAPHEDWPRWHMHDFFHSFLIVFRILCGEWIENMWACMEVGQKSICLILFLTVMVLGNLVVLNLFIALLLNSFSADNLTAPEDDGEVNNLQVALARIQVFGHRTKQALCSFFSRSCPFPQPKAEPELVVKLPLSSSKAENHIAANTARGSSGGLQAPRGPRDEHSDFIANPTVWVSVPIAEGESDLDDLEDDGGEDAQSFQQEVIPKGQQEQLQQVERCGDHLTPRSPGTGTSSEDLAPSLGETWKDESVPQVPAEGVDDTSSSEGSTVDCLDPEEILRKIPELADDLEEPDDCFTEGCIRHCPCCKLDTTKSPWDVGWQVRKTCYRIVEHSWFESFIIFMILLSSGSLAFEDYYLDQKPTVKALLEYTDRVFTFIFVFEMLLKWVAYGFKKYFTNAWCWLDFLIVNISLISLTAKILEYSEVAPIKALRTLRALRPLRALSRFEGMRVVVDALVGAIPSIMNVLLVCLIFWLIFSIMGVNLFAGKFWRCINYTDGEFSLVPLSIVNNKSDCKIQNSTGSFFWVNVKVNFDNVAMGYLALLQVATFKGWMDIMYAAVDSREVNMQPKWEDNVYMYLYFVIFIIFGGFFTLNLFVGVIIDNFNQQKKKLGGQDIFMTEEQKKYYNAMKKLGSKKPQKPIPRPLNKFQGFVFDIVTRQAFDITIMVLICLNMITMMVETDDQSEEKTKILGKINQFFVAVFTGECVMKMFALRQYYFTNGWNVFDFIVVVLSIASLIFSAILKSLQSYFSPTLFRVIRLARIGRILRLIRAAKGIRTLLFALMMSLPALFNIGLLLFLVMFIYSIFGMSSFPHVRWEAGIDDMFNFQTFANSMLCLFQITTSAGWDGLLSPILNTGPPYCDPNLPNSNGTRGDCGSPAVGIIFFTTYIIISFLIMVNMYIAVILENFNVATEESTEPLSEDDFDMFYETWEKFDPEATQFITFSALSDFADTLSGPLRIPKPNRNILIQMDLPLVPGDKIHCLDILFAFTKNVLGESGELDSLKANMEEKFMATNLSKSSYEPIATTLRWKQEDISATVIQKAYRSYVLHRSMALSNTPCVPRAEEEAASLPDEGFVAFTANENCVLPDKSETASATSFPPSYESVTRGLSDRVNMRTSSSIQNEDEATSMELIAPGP
Sequence of human Nav1.7 (Q15858 whole entry): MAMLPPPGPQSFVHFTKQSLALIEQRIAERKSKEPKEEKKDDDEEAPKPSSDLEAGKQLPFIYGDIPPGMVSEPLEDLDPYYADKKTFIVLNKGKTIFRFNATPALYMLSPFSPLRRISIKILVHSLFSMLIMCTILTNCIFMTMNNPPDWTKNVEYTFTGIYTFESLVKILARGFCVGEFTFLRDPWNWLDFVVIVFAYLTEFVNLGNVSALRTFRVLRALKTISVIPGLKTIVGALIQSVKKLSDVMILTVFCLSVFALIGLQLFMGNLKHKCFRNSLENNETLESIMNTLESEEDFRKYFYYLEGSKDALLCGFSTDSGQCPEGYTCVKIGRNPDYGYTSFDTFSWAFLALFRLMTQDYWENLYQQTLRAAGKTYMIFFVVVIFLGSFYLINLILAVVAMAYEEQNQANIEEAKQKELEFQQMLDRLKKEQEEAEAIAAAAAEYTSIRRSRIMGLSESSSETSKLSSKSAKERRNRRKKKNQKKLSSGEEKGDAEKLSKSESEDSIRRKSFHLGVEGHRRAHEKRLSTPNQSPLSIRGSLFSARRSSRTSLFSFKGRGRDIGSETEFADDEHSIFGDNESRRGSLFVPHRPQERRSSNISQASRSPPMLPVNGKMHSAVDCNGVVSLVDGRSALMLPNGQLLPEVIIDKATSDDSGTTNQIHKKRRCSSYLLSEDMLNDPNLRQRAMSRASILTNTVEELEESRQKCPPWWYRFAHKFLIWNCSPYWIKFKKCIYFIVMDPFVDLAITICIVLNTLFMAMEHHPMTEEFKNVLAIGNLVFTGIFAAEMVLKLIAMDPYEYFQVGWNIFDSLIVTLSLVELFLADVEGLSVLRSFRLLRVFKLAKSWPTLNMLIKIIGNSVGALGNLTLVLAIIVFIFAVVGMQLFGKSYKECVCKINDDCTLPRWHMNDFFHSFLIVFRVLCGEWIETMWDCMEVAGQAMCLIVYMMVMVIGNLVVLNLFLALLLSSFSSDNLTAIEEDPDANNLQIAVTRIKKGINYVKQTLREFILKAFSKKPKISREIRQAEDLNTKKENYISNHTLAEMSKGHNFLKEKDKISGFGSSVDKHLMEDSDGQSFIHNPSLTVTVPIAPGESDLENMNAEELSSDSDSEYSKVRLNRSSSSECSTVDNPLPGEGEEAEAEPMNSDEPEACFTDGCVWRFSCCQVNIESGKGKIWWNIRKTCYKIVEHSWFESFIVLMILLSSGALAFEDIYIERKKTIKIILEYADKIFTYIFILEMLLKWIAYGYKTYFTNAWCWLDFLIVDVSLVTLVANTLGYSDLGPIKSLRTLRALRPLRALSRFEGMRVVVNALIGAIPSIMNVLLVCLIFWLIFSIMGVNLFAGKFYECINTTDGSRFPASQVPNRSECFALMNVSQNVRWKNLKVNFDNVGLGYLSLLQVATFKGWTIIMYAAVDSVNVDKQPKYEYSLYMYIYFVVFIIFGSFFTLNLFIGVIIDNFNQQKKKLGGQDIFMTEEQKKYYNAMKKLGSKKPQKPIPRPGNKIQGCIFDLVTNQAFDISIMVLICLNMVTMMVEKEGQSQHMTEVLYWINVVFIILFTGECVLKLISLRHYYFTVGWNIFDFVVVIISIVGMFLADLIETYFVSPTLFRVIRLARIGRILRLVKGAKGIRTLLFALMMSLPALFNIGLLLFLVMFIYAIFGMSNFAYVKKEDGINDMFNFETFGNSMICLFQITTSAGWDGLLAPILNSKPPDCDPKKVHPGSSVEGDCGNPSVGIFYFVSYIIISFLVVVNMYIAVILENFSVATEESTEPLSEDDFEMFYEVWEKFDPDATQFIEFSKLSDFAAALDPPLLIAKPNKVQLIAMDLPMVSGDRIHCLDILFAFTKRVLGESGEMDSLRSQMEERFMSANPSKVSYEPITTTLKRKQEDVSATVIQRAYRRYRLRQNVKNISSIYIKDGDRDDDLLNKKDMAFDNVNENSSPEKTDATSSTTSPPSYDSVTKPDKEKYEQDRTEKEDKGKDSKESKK

| Compound | IC50 (human Nav1.8) [µM] | IC50 (human Nav1.7) [µM] |
| --- | --- | --- |
| O=C(CN1CCN(c2cccc3c2cnn3-c2ccccc2F)C1=O)N1C[C@H]2CCC[C@H]2C1 [Example 342, 1-[1-(2-fluorophenyl)-1H-indazol-4-yl]-3-{2-[(3aR,6aS)-hexahydrocyclopenta[c]pyrrol-2(1H)-yl]-2-oxoethyl}imidazolidin-2-one] | 0.746 | 2.21 |
| O=C(Cn1ccn(-c2cccc3c2cnn3-c2ccccc2F)c1=O)N1CC[C@H](F)C1 [Example 11, 1-[1-(2-fluorophenyl)-1H-indazol-4-yl]-3-{2-[(3S)-3-fluoropyrrolidin-1-yl]-2-oxoethyl}-1,3-dihydro-2H-imidazol-2-one] | 1.47 | 0.483 |
| O=C(CN1CCN(c2cccc3c2cnn3-c2ccccc2F)C1=O)N[C@@H]1CCC[C@H]1OCc1ccccc1 [Example 335, N-[(1R,2R)-2-(benzyloxy)cyclopentyl]-2-{3-[1-(2-fluorophenyl)-1H-indazol-4-yl]-2-oxoimidazolidin-1-yl}acetamide] | 0.501 | 1.11 |
| O=C(CN1CCN(c2cccc3c2cnn3-c2ccccc2F)C1=O)NC1CCCC1(F)F (centres unmarked) [Example 347, N-(2,2-difluorocyclopentyl)-2-{3-[1-(2-fluorophenyl)-1H-indazol-4-yl]-2-oxoimidazolidin-1-yl}acetamide] | 1.29 | 3.45 |
| CC(C)(C)n1ncc2c(N3CCN(CC(=O)N4CC[C@H](F)C4)C3=O)cccc21 [Example 306, 1-(1-tert-butyl-1H-indazol-4-yl)-3-{2-[(3S)-3-fluoropyrrolidin-1-yl]-2-oxoethyl}imidazolidin-2-one] | 20 | 20 |
| O=C(CN1CCN(c2cccc3c2cnn3-c2ccccc2F)C1=O)N1CCC(F)CC1 [Example 69, 1-[1-(2-fluorophenyl)-1H-indazol-4-yl]-3-[2-(4-fluoropiperidin-1-yl)-2-oxoethyl]imidazolidin-2-one] | 4.8 | 2.95 |
| O=C(CN1CCN(c2cccc3c2cnn3-c2ccccc2F)C1=O)NC1CCOCC1 [Example 320, 2-{3-[1-(2-fluorophenyl)-1H-indazol-4-yl]-2-oxoimidazolidin-1-yl}-N-(tetrahydro-2H-pyran-4-yl)acetamide] | 10.1 | 16.8 |
| O=C(CN1CCN(c2cccc3c2cnn3-c2ccccc2F)C1=O)N1CCC(C(F)(F)F)CC1 [Example 299, 1-[1-(2-fluorophenyl)-1H-indazol-4-yl]-3-{2-oxo-2-[4-(trifluoromethyl)piperidin-1-yl]ethyl}imidazolidin-2-one] | 0.398 | 0.95 |
| CC1(F)CN(C(=O)CN2CCN(c3cccc4c3cnn4-c3ccccc3F)C2=O)C1 [Example 309, 1-[2-(3-fluoro-3-methylazetidin-1-yl)-2-oxoethyl]-3-[1-(2-fluorophenyl)-1H-indazol-4-yl]imidazolidin-2-one] | 0.725 | 0.695 |
| NC(=O)[C@@H](Cc1ccccc1)NC(=O)CN1CCN(c2cccc3c2cnn3-c2ccccc2F)C1=O [Example 345, Nα-({3-[1-(2-fluorophenyl)-1H-indazol-4-yl]-2-oxoimidazolidin-1-yl}acetyl)-D-phenylalaninamide] | 1.78 | 6.06 |
| O=C(CN1CCN(c2cccc3c2cnn3-c2ccccc2F)C1=O)N1CCOCC1 [Example 293, 1-[1-(2-fluorophenyl)-1H-indazol-4-yl]-3-[2-(morpholin-4-yl)-2-oxoethyl]imidazolidin-2-one] | 17.6 | 3.67 |
| O=C(CN1CCN(c2cccc3c2cnn3-c2ccccc2F)C1=O)N1CC(C(F)(F)F)C1 [Example 329, 1-[1-(2-fluorophenyl)-1H-indazol-4-yl]-3-{2-oxo-2-[3-(trifluoromethyl)azetidin-1-yl]ethyl}imidazolidin-2-one] | 3.13 | 2.72 |
| O=C(CN1CCN(c2cccc3c2cnn3-c2ccccc2F)C1=O)N1CCCC(C(F)(F)F)C1 (centres unmarked) [Example 300, 1-[1-(2-fluorophenyl)-1H-indazol-4-yl]-3-{2-oxo-2-[3-(trifluoromethyl)piperidin-1-yl]ethyl}imidazolidin-2-one] | 1.06 | 3.11 |
| CC(=O)C1CN(C(=O)CN2CCN(c3cccc4c3cnn4-c3ccccc3F)C2=O)C1 [Example 325, 1-[2-(3-acetylazetidin-1-yl)-2-oxoethyl]-3-[1-(2-fluorophenyl)-1H-indazol-4-yl]imidazolidin-2-one] | 3.86 | 3.12 |
| O=C(CN1CCN(c2cccc3c2cnn3-c2ccccc2F)C1=O)NC1COC1 [Example 321, 2-{3-[1-(2-fluorophenyl)-1H-indazol-4-yl]-2-oxoimidazolidin-1-yl}-N-(oxetan-3-yl)acetamide] | 5.67 | 5.79 |
| O=C1CC(NC(=O)CN2CCN(c3cccc4c3cnn4-c3ccccc3F)C2=O)C1 [Example 349, 2-{3-[1-(2-fluorophenyl)-1H-indazol-4-yl]-2-oxoimidazolidin-1-yl}-N-(3-oxocyclobutyl)acetamide] | 7.57 | 15.1 |
| CCN(CC)C(=O)CN1CCN(c2cccc3c2cnn3-c2ccccc2F)C1=O [Example 93, N,N-diethyl-2-{3-[1-(2-fluorophenyl)-1H-indazol-4-yl]-2-oxoimidazolidin-1-yl}acetamide] | 5.18 | 10.7 |
| CC(C)[C@H](NC(=O)CN1CCN(c2cccc3c2cnn3-c2ccccc2F)C1=O)C(=O)NC(C)(C)C [Example 346, N-tert-butyl-N^2-({3-[1-(2-fluorophenyl)-1H-indazol-4-yl]-2-oxoimidazolidin-1-yl}acetyl)-L-valinamide] | 0.96 | 2.04 |
| O=C(CN1CCN(c2cccc3c2cnn3-c2ccccc2F)C1=O)N[C@@H]1CCC[C@@H]1O [Example 332, 2-{3-[1-(2-fluorophenyl)-1H-indazol-4-yl]-2-oxoimidazolidin-1-yl}-N-[(1R,2S)-2-hydroxycyclopentyl]acetamide] | 2.64 | 5.1 |
| O=C(CN1CCN(c2cccc3c2cnn3-c2ccccc2F)C1=O)NC1CC(O)C1 (centres unmarked) [Example 350, 2-{3-[1-(2-fluorophenyl)-1H-indazol-4-yl]-2-oxoimidazolidin-1-yl}-N-(3-hydroxycyclobutyl)acetamide] | 12.3 | 9.22 |
| CC(C)COC(=O)N1CCN(c2cccc3c2cnn3-c2ccccc2F)C1=O [Example 5, isobutyl 3-[1-(2-fluorophenyl)-1H-indazol-4-yl]-2-oxoimidazolidine-1-carboxylate] | 0.0572 | 0.166 |
| O=C(CN1CCN(c2cccc3c2cnn3-c2ccccc2F)C1=O)N[C@H]1CCOC1 [Example 87, 2-{3-[1-(2-fluorophenyl)-1H-indazol-4-yl]-2-oxoimidazolidin-1-yl}-N-[(3S)-tetrahydrofuran-3-yl]acetamide] | 5.56 | 2.46 |
| O=C(CN1CCN(c2cccc3c2cnn3-c2ccccc2F)C1=O)NCC1CCOC1 (centres unmarked) [Example 75, 2-{3-[1-(2-fluorophenyl)-1H-indazol-4-yl]-2-oxoimidazolidin-1-yl}-N-(tetrahydrofuran-3-ylmethyl)acetamide] | 12.1 | 7.49 |
| CC(C)(C)OC(=O)CN1CCN(c2cccc3c2cnn3-c2ccccc2F)C1=O [Example 286, tert-butyl {3-[1-(2-fluorophenyl)-1H-indazol-4-yl]-2-oxoimidazolidin-1-yl}acetate] | 3 | 3.17 |
| O=C(CN1CCN(c2cccc3c2cnn3-c2ccccc2F)C1=O)N1CCCCCC1 [Example 303, 1-[2-(azepan-1-yl)-2-oxoethyl]-3-[1-(2-fluorophenyl)-1H-indazol-4-yl]imidazolidin-2-one] | 0.93 | 2.46 |

Source: patent publication US9783527B2, “Indazole ureas and method of use” (AbbVie Inc., priority 2014, dated 2017)
